According to US11236055B2 (Venenum Biodesign, LLC, priority 2016, dated 2022):

Experiments:
[1] = target: T1, mouse TGR5 receptor (Mus musculus, UniProt Q80SS6); experiment: Mouse TGR5 cAMP production assay (HTRF, Cisbio cAMP HiRange); type: cell-based; details: HEK293-EBNA cells overexpressing mouse TGR5, HTRF cAMP HiRange; coded A-D
T1 construct: expressed in transfected cells; host or cells: HEK293-EBNA (293 c18, ATCC CRL10852), Hygromycin B selection
T1 sequence (Q80SS6 1-329): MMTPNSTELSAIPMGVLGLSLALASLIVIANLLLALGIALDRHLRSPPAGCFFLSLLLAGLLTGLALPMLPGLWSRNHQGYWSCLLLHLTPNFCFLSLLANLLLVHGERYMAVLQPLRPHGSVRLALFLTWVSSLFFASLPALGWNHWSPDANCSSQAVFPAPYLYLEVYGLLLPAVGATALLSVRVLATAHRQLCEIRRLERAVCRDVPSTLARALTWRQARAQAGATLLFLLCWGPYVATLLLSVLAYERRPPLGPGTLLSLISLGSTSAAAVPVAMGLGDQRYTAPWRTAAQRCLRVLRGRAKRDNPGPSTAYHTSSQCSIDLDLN
Excerpt: Mouse TGR5 cAMP Production Assay
We evaluated compounds of the present invention for their ability to induce cAMP production in HEK-EBNA cells overexpressing the mouse TGR5 receptor. Human embryonic kidney cells (HEK293-EBNA) stably expressing mouse TGR5 receptor were established using the following procedure. Specifically, a commercially-obtained gene encoding mouse TGR5 (accession number BC116914) from Thermo Scientific (Waltham, Mass.) was cloned into an episomal expression vector. The resulting expression plasmid was then transfected into 293 c18 (ATCC® CRL10852™) cells, which express the Epstein-Barr virus nuclear antigen EBNA1 and can support the replication of episomal vectors. Selection for the plasmid was maintained with Hygromycin B. Cells were cultured and maintained in DMEM (Sigma; cat #6429) supplemented with 10% Fetal Bovine Serum, 1% penicillin/streptomycin, 2 mM L-alanine L-glutamine (GlutaMax), and 250 μg/mL Hygromycin.
2. HTRF cAMP Production Assay
In this second cAMP production assay, the cAMP production was measured in 384-well low volume plates (Greiner; cat #784075) using the Cisbio™ cAMP HiRange HTRF Assay Kit (Cisbio) according to the manufacturer's protocol.
Briefly, compounds were initially diluted in 100% DMSO (12-point serial dilution by half logs) in a 96-well plate and then were further diluted 1:50 in PBS containing 10 mM HEPES. 5 μL were transferred to the 384-well assay plate in duplicate. HEK293-EBNA cells stably overexpressing mouse TGR5 were harvested using non-enzymatic cell dissociation buffer (Sigma), spun down, then resuspended in serum-free DMEM with 500 μM IBMX at a density of 500,000 cells/mL. 5 μL of cell suspension was transferred to each well of the 384-well assay plate already containing compound. The plate was covered and incubated at room temperature for 1 hour. The d2-cAMP and anti-cAMP Ab-cryptate stock solutions were prepared as per kit instructions. Then 5 μL of each conjugate (d2 and cryptate) were added to each well of the assay plate. The plate was covered and incubated at room temperature for 1 hour. The plate was read on an Envision™ plate reader (Perkin Elmer).
(§1) In Table 33, EC50 values for both human and mouse cells were determined according to the TGR5 cAMP assays described above.

[2] = target: T2, human TGR5 receptor (Homo sapiens, UniProt Q8TDU6); experiment: Human TGR5 cAMP production assay; type: cell-based; details: human TGR5, luminescent cAMP assay; coded A-D; read-out: Human TGR5 Lum. cAMP Activity (EC50)
T2 construct: host or cells: CHO-K1 (hTGR5-CHO cells)
T2 sequence (Q8TDU6 1-330): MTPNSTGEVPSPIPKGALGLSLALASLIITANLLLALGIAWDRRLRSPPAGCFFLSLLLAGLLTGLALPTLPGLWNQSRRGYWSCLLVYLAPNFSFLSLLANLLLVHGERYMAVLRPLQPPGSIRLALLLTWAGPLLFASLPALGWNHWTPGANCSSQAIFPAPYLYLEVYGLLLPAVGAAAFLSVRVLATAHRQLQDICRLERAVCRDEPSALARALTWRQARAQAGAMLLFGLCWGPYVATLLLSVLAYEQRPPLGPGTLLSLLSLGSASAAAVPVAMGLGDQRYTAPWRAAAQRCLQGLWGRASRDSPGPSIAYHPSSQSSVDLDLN
Description: Human TGR5 cAMP Production Assay
We evaluated the Compounds of the present invention for their ability to induce cAMP production using CHO-K1 cells overexpressing the human TGR5 receptor. CHO-K1 cells stably expressing human TGR5 receptor (accession number NM_001077194.1 (hTGR5) (i.e., hTGR5-CHO cells) were purchased from DiscoveRx Corporation (Fremont, Calif.). hTGR5-CHO cells were grown in Ham's F-12 media supplemented with 10% Fetal Bovine Serum, 1% Penicillin-Streptomycin, 2 mM L-Alanine L-Glutamine (Glutamax), and 800 μg/mL Geneticin selection. The cAMP production assay was performed using DiscoveRx's cAMP XS+ kit (Catalog No. 90-0075XL) following the manufacturer's recommended protocol. Briefly, hTGR5-CHO cells were harvested using non-enzymatic cell dissociation buffer (Sigma-Aldrich, St. Louis, Mo.) and 1×10^6 cells were combined in Phosphate-Buffered Saline (PBS) to a final volume of 496 μL to which 4 μL of 125 mM IBMX (Sigma-Aldrich, St. Louis, Mo.) was added. 500 μL of cAMP antibody solution was added to the harvested cells and incubated at room temperature for 20 min.
Test compounds were serially diluted (half-log dilutions) in DMSO and then further diluted 1:50 in PBS, 10 mM HEPES buffer. 2 μL of serially diluted compound was added to a 384-well low volume plate (Greiner; cat #784075) and centrifuged briefly. 2 μL of the cell/cAMP antibody mixture was then added to each compound-containing well and allowed to incubate at room temperature for one hour. Following incubation, the XS+ kits' ED/Lysis/CL Substrate Working Solution was prepared following the manufacturer's recommended protocol and 4 μL was added to each well of the plate. The plate was then incubated for one hour at room temperature. Following incubation, 4 μL of Enzyme Acceptor reagent was added to the plate and allowed to incubate overnight at room temperature. Luminescent signal was then detected using the Viewlux instrument (Perkin-Elmer, Waltham, Mass.).
as §1

Compound	EC50 [1] [nM]	EC50 [2] [nM]
Cc1cnccc1-c1cccc(CCN(CCCC(=O)NCCS(=O)(=O)O)S(=O)(=O)c2cccc(Cl)c2C)c1 [Compound 20BT, 2-(4-(3-chloro-2-methyl-N-(3-(3-methylpyridin-4-yl)phenethyl)phenylsulfonamido)butanamido)ethanesulfonic acid]	1000 to 30000	100 to 999
CC(C)(NS(=O)(=O)c1ccccc1C(F)(F)F)c1cccc(-c2cnc3nccn3c2)c1 [Compound 5AM, N-(2-(3-(imidazo [1,2-a]pyrimidin-6-yl)phenyl)propan-2-yl)-2-(trifluoromethyl)benzenesulfonamide]	1000 to 30000	1000 to 30000
Cc1cnccc1-c1cccc(C(C)(C)NS(=O)(=O)c2ccccc2C)c1 [Compound 2BX]	< 100	< 100
Cc1cnccc1-c1cccc(C(C)(C)N(CCCNS(=O)(=O)CCN)S(=O)(=O)c2cccc(Cl)c2C)c1 [Compound 26, N-(3-((2-aminoethyl)sulfonamido)propyl)-3-chloro-2-methyl-N-(2-(3-(3-methylpyridin-4-yl)phenyl)propan-2-yl)benzenesulfonamide]	100 to 999	< 100
CC(C)(NS(=O)(=O)c1cccc(C(F)(F)F)c1)c1cccc(-c2ccncc2N)c1 [Compound 1AM]	100 to 999	< 100
COc1cnccc1-c1cccc(C(C)(C)NS(=O)(=O)c2ccc(Cl)cc2[N+](=O)[O-])c1 [Compound 2BI]	100 to 999	< 100
Cc1c(Cl)cccc1S(=O)(=O)N[C@@H](C)c1cccc(-c2ccnn2C)c1 [Compound 4, (S)-3-Chloro-2-methyl-N-(1-(3-(1-methyl-1H-pyrazol-5-yl)phenyl)ethyl)benzenesulfonamide]	1000 to 30000	100 to 999
Cc1cnccc1-c1cccc([C@H](C)N(CCCC(=O)NCCS(=O)(=O)O)S(=O)(=O)c2ccccc2C(F)(F)F)c1	100 to 999	< 100
Cc1cnccc1-c1cccc([C@H](C)N(CCCC(=O)NCCNC(=O)NCCC(=O)O)S(=O)(=O)c2cccc(Cl)c2C)c1 [Compound 30, (S)-3-((3-Chloro-2-methylphenyl)sulfonyl)-2-(3-(3-methylpyridin-4-yl)phenyl)-7,12-dioxo-3,8,11,13-tetraazahexadecan-16-oic acid]	100 to 999	< 100
CCc1cnccc1-c1cccc([C@@H](C)NS(=O)(=O)c2ccccc2C(F)(F)F)c1 [Compound 5AS, (R)-N-(1-(3-(3-ethylpyridin-4-yl)phenyl)ethyl)-2-(trifluoromethyl)benzenesulfonamide]	100 to 999	< 100
Cc1cnccc1-c1cccc([C@H](C)N(CCCCNCCC(=O)O)S(=O)(=O)c2cccc(Cl)c2C)c1 [Compound 33, (S)-3-((4-(3-chloro-2-methyl-N-(1-(3-(3-methylpyridin-4-yl)phenyl)ethyl)phenylsulfonamido)butyl)amino)propanoic acid]	100 to 999	100 to 999
Cc1cnccc1-c1cccc([C@H](C)N(CCCC(N)=O)S(=O)(=O)c2cccc(Cl)c2C)c1 [Compound 20AY, (S)-4-(3-Chloro-2-methyl-N-(1-(3-(3-methylpyridin-4-yl)phenyl)ethyl)phenylsulfonamido)butanamide]	100 to 999	< 100
Cc1cnccc1-c1cccc(C(C)(C)N(CCCNc2ncc(C(=O)O)cn2)S(=O)(=O)c2cccc(Cl)c2C)c1 [Compound 27, 2-((3-((3-chloro-2-methyl-N-(2-(3-(3-methylpyridin-4-yl)phenyl)propan-2-yl)phenyl)sulfonamido)propyl)amino)pyrimidine-5-carboxylic acid]	100 to 999	< 100
Cc1nccc(-c2cccc([C@H](C)N(CCCC(=O)O)S(=O)(=O)c3cccc(Cl)c3C)c2)c1C [Compound 14AG, (S)-4-(3-chloro-N-(1-(3-(2,3-dimethylpyridin-4-yl)phenyl)ethyl)-2-methylphenylsulfonamido)butanoic acid]	100 to 999	100 to 999

Next, values leading:

EC50 [1] [nM]	EC50 [2] [nM]	Compound
100 to 999	< 100	Cc1cnccc1-c1cccc(C(C)(C)N(CCCC(=O)NCCN(C)C)S(=O)(=O)c2cccc(Cl)c2C)c1 [Compound 21AD, 4-(3-chloro-2-methyl-N-(2-(3-(3-methylpyridin-4-yl)phenyl)propan-2-yl)phenylsulfonamido)-N-(2-(dimethyl-amino)ethyl)butanamide]
100 to 999	< 100	Cc1cnccc1-c1cccc(C(C)(C)N(CCCNS(=O)(=O)CCNC(=N)N)S(=O)(=O)c2cccc(Cl)c2C)c1 [Compound 27AC, 3-chloro-N-(3-((2-guanidinoethyl)sulfonamido)propyl)-2-methyl-N-(2-(3-(3-methylpyridin-4-yl)phenyl)propan-2-yl)benzenesulfonamide]
100 to 999	< 100	Cc1cnccc1-c1cccc([C@H](C)N(CCCC(=O)N[C@@H](CO)C(=O)O)S(=O)(=O)c2cccc(Cl)c2C)c1 [Compound 21AI, (S)-2-(4-(3-chloro-2-methyl-N-((S)-1-(3-(3-methylpyridin-4-yl)phenyl)ethyl)phenylsulfonamido)butanamido)-3-hydroxypropanoic acid]
< 100	< 100	CCc1cnccc1-c1cccc([C@H](C)N(CCCCNS(=O)(=O)CCC(=O)O)S(=O)(=O)c2cccc(Cl)c2C)c1 [Compound 26AE, (S)-3-(N-(4-(3-chloro-N-(1-(3-(3-ethylpyridin-4-yl)phenyl)ethyl)-2-methylphenylsulfonamido)butyl)sulfamoyl)propanoic acid]
< 100	100 to 999	Cc1cnccc1-c1cccc(C(C)(C)N(CCCC(=O)N[C@@H](CS(=O)(=O)O)C(=O)O)S(=O)(=O)c2cccc(Cl)c2C)c1 [Compound 21AA, (R)-2-(4-(3-chloro-2-methyl-N-(2-(3-(3-methylpyridin-4-yl)phenyl)propan-2-yl)phenylsulfonamido)butanamido)-3-sulfopropanoic acid]
